Reference: patent publication US9062050B2, “Inhibitor of JAK1 and JAK2” (Eli Lilly and Company, priority 2012, dated 2015)

Molecular target: T1, JAK3 (Homo sapiens, UniProt P52333)
T1 sequence (P52333 1-1124): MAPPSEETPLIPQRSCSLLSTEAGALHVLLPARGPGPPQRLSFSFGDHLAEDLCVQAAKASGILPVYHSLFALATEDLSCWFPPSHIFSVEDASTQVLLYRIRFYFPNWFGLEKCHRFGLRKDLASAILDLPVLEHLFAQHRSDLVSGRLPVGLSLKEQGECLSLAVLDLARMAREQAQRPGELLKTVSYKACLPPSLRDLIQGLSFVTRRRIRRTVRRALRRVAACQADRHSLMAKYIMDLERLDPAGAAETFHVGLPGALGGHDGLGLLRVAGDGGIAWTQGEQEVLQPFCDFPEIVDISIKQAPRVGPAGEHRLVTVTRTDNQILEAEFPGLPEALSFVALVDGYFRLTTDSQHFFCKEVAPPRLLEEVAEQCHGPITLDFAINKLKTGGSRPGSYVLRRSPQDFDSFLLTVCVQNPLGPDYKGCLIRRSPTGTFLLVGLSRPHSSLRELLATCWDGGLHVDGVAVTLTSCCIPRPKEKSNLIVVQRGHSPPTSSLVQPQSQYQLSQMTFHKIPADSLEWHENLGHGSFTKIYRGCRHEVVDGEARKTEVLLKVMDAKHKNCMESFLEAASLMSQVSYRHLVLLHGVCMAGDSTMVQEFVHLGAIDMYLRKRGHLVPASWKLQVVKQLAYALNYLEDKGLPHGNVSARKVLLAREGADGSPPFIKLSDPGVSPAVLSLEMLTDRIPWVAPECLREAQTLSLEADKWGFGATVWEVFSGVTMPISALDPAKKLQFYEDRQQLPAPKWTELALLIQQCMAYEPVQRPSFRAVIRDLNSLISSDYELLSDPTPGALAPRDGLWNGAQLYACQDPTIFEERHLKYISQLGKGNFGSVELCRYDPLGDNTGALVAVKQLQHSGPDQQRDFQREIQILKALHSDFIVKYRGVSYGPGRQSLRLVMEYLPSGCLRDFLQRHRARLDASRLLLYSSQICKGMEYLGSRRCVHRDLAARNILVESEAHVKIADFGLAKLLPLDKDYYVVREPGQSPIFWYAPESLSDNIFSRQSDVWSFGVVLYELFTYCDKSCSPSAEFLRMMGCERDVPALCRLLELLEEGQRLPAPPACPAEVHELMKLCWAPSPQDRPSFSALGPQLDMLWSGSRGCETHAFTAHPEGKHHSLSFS
Experiment: JAK3 IL-2-NK-92/pSTAT5 cell-based assay (Cellomics ArrayScan HCS)
Set-up: host or cells: NK-92 (natural killer) cells
Excerpt: IL-2 activates the JAK3 pathway in natural killer (NK) cells to drive the NK and CD8 lymphocyte proliferation. Therefore, IL-2 stimulated NK92/pSTAT5 cell-based assay enables the evaluation of the JAK3 cellular activity of JAK compounds in vitro.
NK-92 (natural killer) cells (ATCC, Manassas, Va.) are maintained in minimum essential medium (MEM) Alpha with 15% fetal bovine serum, 15% Horse Serum and 1× antibiotic/antimycotic (Invitrogen, Carlsbad, Calif.). The medium is supplemented with IL-2 (R&D systems, Minneapolis, Minn.) for a final concentration of 4 ng/mL. Cells are kept at 37° C. with 5% CO2. Cells are starved in serum free medium to remove endogenous growth factors. NK-92 cells are counted and collected to seed 2×10^7 cells per 96-well plate at a density of 2×10^5 cells per well. The cells are rinsed twice with unsupplemented MEM Alpha (MEM Alpha) before suspending cells at a final concentration of 8×10^5 cells/mL in MEM Alpha with 0.6% serum (0.3% FBS, 0.3% horse serum). The diluted cells are added back to tissue culture flasks and incubated overnight at 37° C. Test compound is prepared in 100% DMSO at 10 mM concentration. […] An aliquot of 200 μL of 1 to 10 dilution of Mouse anti-pSTAT5 (pY694) Alexa Fluor 647® in fluorescence activated cell sorting (FACS) buffer is added to the cells. […] Mean fluorescent intensity data are collected and analyzed using Cellomics Arrayscan® VTi. […]

Cc1cc(Nc2ccc3ncn([C@@H]4CCc5ccc(F)cc54)c3n2)[nH]n1.Cl.Cl [Example 1, 3-[(1R)-6-fluoro-2,3-dihydro-1H-inden-1-yl]-N-(3-methyl-1H-pyrazol-5-yl)-3H-imidazo[4,5-b]pyridin-5-amine dihydrochloride]
IC50 (NK-92 cells, IL-2 at 0.5 ng/mL, relative IC50, n=61, read-out: IC50, inhibits JAK3 (pSTAT5)): 228 nM
ratio of JAK3/JAK2 IC50 (from the two cell-based assays (EPO-TF1/pSTAT5 and IL-2-NK-92/pSTAT5)): more than six-fold
